Experiment: xn = mol fraction of the nth substance listed, in the solute-free solvent

Oc1ccc(Cl)c2cccnc12 + CCOCCO + CCO
solubility (g/100 g solution)
Conditions	278.15 K	283.15 K	288.15 K	293.15 K	298.15 K	303.15 K	308.15 K	313.15 K	318.15 K	323.15 K
x2 = 0.1134	1.08	1.36	1.64	1.98	2.41	2.88	3.44	4.07	4.85	5.76
x2 = 0.2542	1.61	1.9	2.21	2.69	3.17	3.76	4.43	5.22	6.15	7.04
x2 = 0.434	2.17	2.57	2.99	3.57	4.14	4.77	5.59	6.57	7.64	8.85
x2 = 0.6716	2.81	3.34	3.83	4.5	5.16	6.07	6.97	8.03	9.21	10.5

Nc1cncc(Cl)n1 + CN(C)C=O + O
solubility (g/100 g solution)
Conditions	278.15 K	283.15 K	288.15 K	293.15 K	298.15 K	303.15 K	308.15 K	313.15 K	318.15 K	323.15 K
x2 = 0.02666	–	–	–	–	–	–	–	–	–	0.136
x2 = 0.05806	–	–	–	–	–	–	–	–	–	0.386
x2 = 0.09556	0.711	0.836	0.963	1.12	1.29	1.5	1.71	1.95	2.21	2.52
x2 = 0.1412	1	1.18	1.36	1.59	1.83	2.13	2.43	2.78	3.15	3.58
x2 = 0.1978	1.13	1.35	1.6	1.86	2.18	2.55	2.94	3.38	3.84	4.38
x2 = 0.27	1.26	1.53	1.81	2.13	2.52	2.94	3.38	3.91	4.51	5.2
x2 = 0.3652	1.39	1.68	2.03	2.4	2.83	3.31	3.89	4.51	5.18	5.97
x2 = 0.4965	1.5	1.85	2.23	2.67	3.17	3.69	4.34	5.06	5.84	6.7
x2 = 0.6893	1.59	1.97	2.39	2.87	3.39	3.97	4.66	5.5	6.38	7.36

O=C(O)c1cc([N+](=O)[O-])ccc1O + CN(C)C=O + O
solubility (g/100 g solution)
Conditions	278.15 K	283.15 K	288.15 K	293.15 K	298.15 K	303.15 K	308.15 K	313.15 K	318.15 K	323.15 K
x2 = 0.02666	0.182	0.224	0.277	0.352	0.437	0.534	0.645	0.775	0.924	1.1
x2 = 0.05806	0.538	0.682	0.832	1	1.26	1.54	1.85	2.17	2.56	3.01
x2 = 0.09556	1.2	1.45	1.81	2.17	2.65	3.12	3.74	4.38	5.16	6.11
x2 = 0.1412	2.33	2.71	3.27	3.93	4.66	5.53	6.45	7.43	8.54	9.8
x2 = 0.1978	3.78	4.51	5.41	6.42	7.5	8.84	10.3	11.9	13.5	15.4
x2 = 0.27	6.74	7.37	8.61	10.2	11.7	13.4	15.2	17.2	19.3	21.5
x2 = 0.3652	10.9	11.7	12.9	14.8	16.9	19	21.2	23.5	26.2	29.4
x2 = 0.4965	14.7	15.3	16.7	19.3	21.5	24	26.1	29.3	32.3	35.7
x2 = 0.6893	16.7	17.7	19.4	21.5	23.8	26.6	29	31.8	35.4	38.8
